Activity calls are given as the source filed them.
Experiments:
BJ [1] = assay: BJ-TERT fibroblast viability loss – cell-based, RAS-independent, luminescence, dose response (AID 1933); format: functional; details: Homo sapiens
[2] = Luminescence Cell-Based Dose Retest to Confirm Inhibitors of Cancer Stem Cells. [Related pubchem assays (depositor defined):AID2717, AID2721]; format: functional; details: Homo sapiens
[3] = alpha-synuclein stem-loop luciferase translation blockers – H4 neuroglioma cells, luminescence, confirmation (AID 1988); format: functional, cell-based
BJ [4] = assay: growth inhibition of engineered Ras-driven BJ cells – cell-based, alamar blue fluorescence, cherrypicked samples, dose response (AID 2631); format: functional; details: Homo sapiens;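 further: confirmatory dose-response assay in RAS-dependent BJ fibroblasts engineered with TERT, LT and ST, with cytotoxicity read by fluorescence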
BJ [5] = assay: BJ-TERT-LT-ST fibroblast viability loss – cell-based, RAS-independent, luminescence, dose response (AID 1935); format: functional; details: Homo sapiens;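 further: BJ fibroblasts immortalized with TERT plus LT and ST oncogenes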
BJ [6] = assay: cells; format: functional, cell-based; details: Homo sapiens
[7] = DRD fibroblast viability loss – cell-based, non-viral oncogenic, luminescence, dose response (AID 1934); format: functional; details: Homo sapiens
[8] = luciferase reporter signal suppression in cells – H4 neuroglioma cells, luminescence, dose response (AID 1990); format: functional, cell-based
[9] = Luminescence Cell-Based Dose Response HTS to Identify Inhibitors of 5'UTR Stem-Loop Driven Prion Protein mRNA Translation in H4 Neuroglioblastoma Cells. [Related pubchem assays: 1827 (Project Summary), 1813 (Primary HTS)]; format: functional
Cytochrome P450 3A4 = Cytochrome P450 3A4 (Homo sapiens, UniProt P08684);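 further: CYP3A4 tested as one member of a cytochrome P450 panel screen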
Cytochrome P450 2C9 = Cytochrome P450 2C9 (Homo sapiens, UniProt P11712)
Cytochrome P450 2C19 = Cytochrome P450 2C19 (Homo sapiens, UniProt P33261); assay: Cytochrome panel assay with activity outcomes. Panel member name: p450-cyp2c19 Compounds with AC50 equal or less than 10 uM are considered active; format: functional; details: read-out: AC50
Cytochrome P450 1A2 = molecular target: T1, Cytochrome P450 1A2 (Homo sapiens, UniProt P05177);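 further: PubChem cytochrome P450 panel assay, CYP1A2 panel member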
T1 sequence (P05177 whole entry): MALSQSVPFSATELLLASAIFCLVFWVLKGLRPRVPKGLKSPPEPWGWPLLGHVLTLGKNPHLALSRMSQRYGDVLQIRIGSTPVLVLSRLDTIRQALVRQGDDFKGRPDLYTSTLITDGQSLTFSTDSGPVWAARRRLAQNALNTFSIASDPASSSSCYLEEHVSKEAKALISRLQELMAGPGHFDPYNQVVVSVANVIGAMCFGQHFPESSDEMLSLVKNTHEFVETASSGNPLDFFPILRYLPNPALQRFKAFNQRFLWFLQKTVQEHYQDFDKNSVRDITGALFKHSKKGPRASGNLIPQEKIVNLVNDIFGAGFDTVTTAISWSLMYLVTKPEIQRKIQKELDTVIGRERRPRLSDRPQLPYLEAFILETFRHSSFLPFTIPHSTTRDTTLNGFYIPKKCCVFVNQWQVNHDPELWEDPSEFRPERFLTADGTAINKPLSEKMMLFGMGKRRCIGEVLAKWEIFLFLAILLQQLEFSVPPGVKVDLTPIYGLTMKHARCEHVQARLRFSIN

[10] = reduction of Shn3 3'UTR-driven luciferase in osteoblasts – cell-based, Clone20 osteoblasts, firefly luciferase, cherry-picked, dose response (AID 624132); format: functional;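 further: firefly luciferase luminescence from reporter carrying the Shn3 3'UTR in osteoblasts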
Protein Wnt-3a = Protein Wnt-3a (Mus musculus, UniProt P27467); assay: antagonism of Wnt3a pathway luciferase reporter – Wnt-LIGHT cells, luminescence, selectivity assay for Gli-SUFU antagonist project, dose response (AID 651570); format: functional; details: read-out: IC50_Mean;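 further: Wnt-LIGHT reporter cells stimulated with conditioned medium from Wnt3a-producing cells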
[11] = non-specific 3'UTR reporter inhibition in Clone20-Shn3RL – cell-based, Renilla luciferase, cherry-picked, counter-screen for Shn3 inhibitor project, dose response (AID 624133); format: functional
[12] = microbe, parasite or virus in culture; format: functional; details: Mycobacterium tuberculosis
INS1 = assay: INS-1E survival protection against cytokine death – cell-based, luminescence, retest, dose response (AID 449756); format: functional; details: Rattus norvegicus;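 further: cell death triggered by IL-1 beta plus TNF-alpha plus IFN-gamma mixture; protective hits raise ATP signal compared with cytokine alone wells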
[13] = viability of HCT116 lacking mutant beta-catenin – cell-based, human colon tumor, dose response (AID 1045); format: functional;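 further: HCT116 colon tumor cells with beta catenin knocked out; cells exposed to compound for 60 hours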
[14] = viability of PTEN-deleted HCT116 cells – cell-based, HCT116 PTEN knockout, dose response (AID 1047); format: functional;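 further: HCT116 colon tumor cells with PTEN knocked out; cells exposed to compound for 60 hours before readout; potency for loss of cell viability measured by luminescence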
cells [15] = format: functional, cell-based
[16] = molecular target: T2, Microphthalmia-associated transcription factor (Homo sapiens, UniProt O75030); assay: reducers of TRPM1 reporter luminescence, concentration series – cell-based, SK-MEL-5, cherry-picked, set 3, MITF inhibitor project, dose response (AID 493073); format: functional;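 further: SK-MEL-5 melanoma cells with luciferase driven by the MITF target TRPM1 promoter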
T2 sequence (O75030 whole entry): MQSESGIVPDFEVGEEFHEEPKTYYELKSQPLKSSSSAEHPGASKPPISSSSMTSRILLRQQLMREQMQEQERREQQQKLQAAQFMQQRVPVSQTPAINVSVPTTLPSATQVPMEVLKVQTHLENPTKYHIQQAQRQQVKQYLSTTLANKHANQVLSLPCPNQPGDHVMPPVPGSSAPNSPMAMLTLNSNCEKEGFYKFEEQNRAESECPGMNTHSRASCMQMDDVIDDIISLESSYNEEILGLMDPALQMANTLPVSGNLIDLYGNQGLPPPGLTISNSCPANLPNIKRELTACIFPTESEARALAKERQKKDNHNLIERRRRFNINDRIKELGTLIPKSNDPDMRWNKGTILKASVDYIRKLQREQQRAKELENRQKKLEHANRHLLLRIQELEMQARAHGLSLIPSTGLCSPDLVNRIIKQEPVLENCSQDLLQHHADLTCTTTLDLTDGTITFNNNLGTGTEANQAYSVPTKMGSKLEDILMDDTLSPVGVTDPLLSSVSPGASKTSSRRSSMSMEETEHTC

cells [17] = format: functional, cell-based; remark: listed apart in the source
[18] = molecular target: T3, Replicative DNA helicase DnaB (Mycobacterium tuberculosis, UniProt P9WMR3); assay: DnaB intein splicing inhibitors, dose response, biochemical, cell-free fluorescence (AID 449749); format: functional
T3 sequence (P9WMR3 whole entry): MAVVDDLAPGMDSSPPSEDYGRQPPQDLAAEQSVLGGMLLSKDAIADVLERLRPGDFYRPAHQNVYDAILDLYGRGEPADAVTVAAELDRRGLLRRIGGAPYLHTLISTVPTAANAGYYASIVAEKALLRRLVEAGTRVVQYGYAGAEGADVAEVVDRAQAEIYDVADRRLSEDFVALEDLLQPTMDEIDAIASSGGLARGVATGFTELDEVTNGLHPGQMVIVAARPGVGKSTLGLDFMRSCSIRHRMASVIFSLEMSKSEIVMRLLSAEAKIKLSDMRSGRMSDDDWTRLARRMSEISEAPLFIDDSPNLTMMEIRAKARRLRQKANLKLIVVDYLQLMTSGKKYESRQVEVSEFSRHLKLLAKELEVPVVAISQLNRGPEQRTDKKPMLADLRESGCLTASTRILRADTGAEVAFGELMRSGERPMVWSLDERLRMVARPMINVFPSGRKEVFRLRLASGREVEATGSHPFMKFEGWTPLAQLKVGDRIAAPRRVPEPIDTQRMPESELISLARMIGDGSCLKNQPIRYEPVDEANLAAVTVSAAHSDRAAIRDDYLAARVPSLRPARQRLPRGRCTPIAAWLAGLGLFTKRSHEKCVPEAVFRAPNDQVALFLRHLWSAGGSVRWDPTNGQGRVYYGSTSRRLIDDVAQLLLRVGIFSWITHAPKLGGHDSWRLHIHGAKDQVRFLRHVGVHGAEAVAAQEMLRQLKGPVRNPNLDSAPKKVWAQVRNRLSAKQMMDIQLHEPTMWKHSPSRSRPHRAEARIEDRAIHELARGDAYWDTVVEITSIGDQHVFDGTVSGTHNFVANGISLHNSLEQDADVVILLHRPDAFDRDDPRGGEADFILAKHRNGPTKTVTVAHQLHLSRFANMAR

[19] = loss of viability in HepG2 cells – cell-based, CellTiter-Glo, cherry-picked, cytotoxicity control for Shn3 inhibitor project, dose response (AID 624134); format: functional
Protein RecA = molecular target: T4, Protein RecA (Mycobacterium tuberculosis, UniProt P9WHJ3); assay: Fluorescence Cell-Free Homogeneous Dose Retest to Identify Inhibitors of RecA-Intein Splicing Activity. [Related pubchem assays (depositor defined):AID2097, AID2223, AID489010, AID492950]; format: functional
T4 sequence (P9WHJ3 whole entry): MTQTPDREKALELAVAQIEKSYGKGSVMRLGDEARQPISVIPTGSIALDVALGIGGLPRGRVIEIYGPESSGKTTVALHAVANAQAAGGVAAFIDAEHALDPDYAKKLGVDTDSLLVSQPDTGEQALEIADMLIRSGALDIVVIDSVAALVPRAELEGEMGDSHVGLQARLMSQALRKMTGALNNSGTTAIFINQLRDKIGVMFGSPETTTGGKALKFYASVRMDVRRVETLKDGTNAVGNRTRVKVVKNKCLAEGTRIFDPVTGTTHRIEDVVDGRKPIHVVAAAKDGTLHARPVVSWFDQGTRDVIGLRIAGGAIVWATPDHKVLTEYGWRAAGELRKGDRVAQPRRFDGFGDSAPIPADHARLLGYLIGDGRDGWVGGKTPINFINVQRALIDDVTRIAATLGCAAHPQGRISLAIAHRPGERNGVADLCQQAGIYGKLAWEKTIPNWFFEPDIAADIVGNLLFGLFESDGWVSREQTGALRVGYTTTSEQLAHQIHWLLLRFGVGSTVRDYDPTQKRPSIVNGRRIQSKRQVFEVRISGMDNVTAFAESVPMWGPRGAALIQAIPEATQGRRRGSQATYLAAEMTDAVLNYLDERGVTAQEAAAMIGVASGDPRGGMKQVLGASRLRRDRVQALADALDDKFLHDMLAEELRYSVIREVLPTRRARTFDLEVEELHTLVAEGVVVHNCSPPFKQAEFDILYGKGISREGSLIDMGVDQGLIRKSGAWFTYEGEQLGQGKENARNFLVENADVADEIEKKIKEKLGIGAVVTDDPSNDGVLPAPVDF

[20] = Fluorescence-based cell-based high throughput dose response assay for inhibitors of the interaction of nucleotide-binding oligomerization domain containing 2 (NOD2) and the receptor-interacting serine-threonine kinase 2 (RIPK2).; format: functional; details: Homo sapiens
Paired box protein Pax-8 = Paired box protein Pax-8 (Homo sapiens, UniProt Q06710); assay: PAX8 transcriptional activity inhibition in RMG-I – RMG-I cells, luciferase, cherry-pick, dose response (AID 687027); format: functional, cell-based;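 further: luciferase reporter driven by Pax8 target thyroperoxidase promoter measured by SteadyGlo luminescence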
[21] = HEK-293T cell viability reduction – luminescence, B-cell screen hits, cytotoxicity control for BCR NF-kB inhibitor project, dose response (AID 489021); format: functional, cell-based;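 further: HEK-293T cells carrying an NF-kB luciferase reporter; cells exposed to compound for about 14 hours before viability readout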
[22] = molecular target: Photoreceptor-specific nuclear receptor (Homo sapiens, UniProt Q9Y5X4); format: functional, cell-based;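 further: CHO-S cells with Gal4-NCOR and VP16-NR2E3 two-hybrid luciferase reporter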
[23] = intracellular Trypanosoma cruzi inhibitors in host cells – cell-based, plate reader, cherry-pick samples, set 3, dose response (AID 651818); format: functional;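 further: compounds incubated with infected cells for about four days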

Chain of Cytochrome P450 3A4 (P08684 whole entry): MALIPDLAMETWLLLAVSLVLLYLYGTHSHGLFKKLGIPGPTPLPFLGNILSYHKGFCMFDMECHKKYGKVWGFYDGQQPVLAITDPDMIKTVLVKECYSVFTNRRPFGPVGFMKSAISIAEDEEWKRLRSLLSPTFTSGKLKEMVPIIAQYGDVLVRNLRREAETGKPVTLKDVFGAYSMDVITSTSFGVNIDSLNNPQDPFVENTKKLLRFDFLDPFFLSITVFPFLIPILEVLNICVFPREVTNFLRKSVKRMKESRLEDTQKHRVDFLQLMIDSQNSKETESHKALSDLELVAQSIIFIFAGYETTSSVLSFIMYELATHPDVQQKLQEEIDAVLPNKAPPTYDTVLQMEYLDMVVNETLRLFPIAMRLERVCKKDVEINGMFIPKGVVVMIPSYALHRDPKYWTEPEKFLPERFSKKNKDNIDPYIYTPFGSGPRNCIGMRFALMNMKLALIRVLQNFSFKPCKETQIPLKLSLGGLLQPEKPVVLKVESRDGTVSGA
Chain of Protein Wnt-3a (P27467 whole entry): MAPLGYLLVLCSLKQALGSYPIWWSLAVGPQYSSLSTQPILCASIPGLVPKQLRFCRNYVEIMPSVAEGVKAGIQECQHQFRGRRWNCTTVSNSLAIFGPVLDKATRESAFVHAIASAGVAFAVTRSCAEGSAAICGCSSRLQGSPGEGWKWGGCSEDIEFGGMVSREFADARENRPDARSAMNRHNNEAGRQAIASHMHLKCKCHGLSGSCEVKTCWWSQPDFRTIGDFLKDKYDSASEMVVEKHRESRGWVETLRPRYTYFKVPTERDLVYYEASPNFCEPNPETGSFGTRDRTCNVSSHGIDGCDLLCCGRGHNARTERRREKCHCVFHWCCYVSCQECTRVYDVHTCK
Chain of Cytochrome P450 2C19 (P33261 whole entry): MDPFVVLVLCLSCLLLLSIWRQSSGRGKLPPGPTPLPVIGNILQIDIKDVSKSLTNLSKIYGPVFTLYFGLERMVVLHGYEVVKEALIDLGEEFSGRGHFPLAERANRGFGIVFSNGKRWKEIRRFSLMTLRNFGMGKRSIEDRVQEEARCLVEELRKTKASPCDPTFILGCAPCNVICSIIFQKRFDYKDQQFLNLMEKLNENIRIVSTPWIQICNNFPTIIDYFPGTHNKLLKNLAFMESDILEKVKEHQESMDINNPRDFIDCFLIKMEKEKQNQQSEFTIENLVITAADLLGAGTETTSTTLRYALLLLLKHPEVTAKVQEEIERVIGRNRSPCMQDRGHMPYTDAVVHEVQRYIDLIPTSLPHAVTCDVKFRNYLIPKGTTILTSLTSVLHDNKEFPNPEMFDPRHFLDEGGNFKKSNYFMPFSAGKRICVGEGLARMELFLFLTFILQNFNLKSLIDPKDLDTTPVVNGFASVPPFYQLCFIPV
Chain of Paired box protein Pax-8 (Q06710 whole entry): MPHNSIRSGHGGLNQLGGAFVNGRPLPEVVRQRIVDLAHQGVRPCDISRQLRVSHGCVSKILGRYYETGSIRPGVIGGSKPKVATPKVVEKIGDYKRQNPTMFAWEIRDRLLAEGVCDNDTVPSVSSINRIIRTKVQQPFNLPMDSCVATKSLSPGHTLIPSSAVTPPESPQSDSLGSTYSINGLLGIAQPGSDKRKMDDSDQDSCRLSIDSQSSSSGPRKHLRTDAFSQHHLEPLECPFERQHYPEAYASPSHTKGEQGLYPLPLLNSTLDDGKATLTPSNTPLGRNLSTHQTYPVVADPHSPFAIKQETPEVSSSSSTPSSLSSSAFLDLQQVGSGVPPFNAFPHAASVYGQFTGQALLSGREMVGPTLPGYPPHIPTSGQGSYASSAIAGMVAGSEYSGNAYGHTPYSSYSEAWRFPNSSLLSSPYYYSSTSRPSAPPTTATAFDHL
Chain of Photoreceptor-specific nuclear receptor (Q9Y5X4 whole entry, the tested form may be a part): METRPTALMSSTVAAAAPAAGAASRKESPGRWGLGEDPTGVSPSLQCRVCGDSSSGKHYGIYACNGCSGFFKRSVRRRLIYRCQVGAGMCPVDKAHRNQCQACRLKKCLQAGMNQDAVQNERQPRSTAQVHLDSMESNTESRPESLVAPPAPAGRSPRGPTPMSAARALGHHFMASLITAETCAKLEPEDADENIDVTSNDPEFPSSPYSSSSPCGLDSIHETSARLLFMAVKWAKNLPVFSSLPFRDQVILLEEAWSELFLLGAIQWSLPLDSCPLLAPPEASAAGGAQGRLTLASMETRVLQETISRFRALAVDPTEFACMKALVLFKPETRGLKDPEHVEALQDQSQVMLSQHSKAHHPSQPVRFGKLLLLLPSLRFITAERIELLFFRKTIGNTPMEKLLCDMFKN
Chain of Cytochrome P450 2C9 (P11712 whole entry): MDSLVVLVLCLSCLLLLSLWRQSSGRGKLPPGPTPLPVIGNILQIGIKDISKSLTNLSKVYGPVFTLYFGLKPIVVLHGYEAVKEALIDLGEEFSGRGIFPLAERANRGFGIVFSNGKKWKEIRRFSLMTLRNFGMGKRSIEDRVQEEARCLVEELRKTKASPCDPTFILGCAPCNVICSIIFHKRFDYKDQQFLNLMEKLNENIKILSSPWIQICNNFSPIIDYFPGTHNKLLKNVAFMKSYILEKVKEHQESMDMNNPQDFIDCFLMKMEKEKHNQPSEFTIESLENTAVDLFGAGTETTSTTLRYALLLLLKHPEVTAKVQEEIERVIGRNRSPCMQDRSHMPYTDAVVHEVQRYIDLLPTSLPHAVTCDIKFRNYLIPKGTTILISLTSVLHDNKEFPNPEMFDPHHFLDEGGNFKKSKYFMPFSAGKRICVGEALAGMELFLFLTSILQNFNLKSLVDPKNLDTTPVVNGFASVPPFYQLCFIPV

## O=Cc1cc2ccccc2nc1SCc1ccc(Cl)cc1
BJ [1]
  EC50: 0.635 µM (active)
[2]
  AC50: 3.66 µM (active)
[3]
  EC50: 0.724 µM (active)
BJ [4]
  EC50: 0.134 µM (active)
BJ [5]
  EC50: 0.434 µM (active)
BJ [6]
  EC50: 0.699 µM (active)
[7]
  EC50: 1.1 µM (active)
[8]
  EC50: 9.87 µM (active)
[9]
  EC50: 0.745 µM (active)

## CCOC(=O)C(Sc1ncnc2c1sc1nc(N3CCOCC3)c3c(c12)CCCC3)c1ccccc1 (centres undefined)
Cytochrome P450 3A4
  AC50: inconclusive
Cytochrome P450 2C9
  AC50: 0.316 µM (inconclusive)
Cytochrome P450 2C19
  AC50: 10 µM (inconclusive)

## Cn1cccc1C(=O)N1CCC2(CC1)CCN(c1ccc(-c3ccccc3)cc1)CC2
Cytochrome P450 1A2
  AC50: 20 µM (inconclusive)
Cytochrome P450 3A4
  AC50: inconclusive

## Cc1nn(Cc2noc(C(=O)NC3CCC(C)CC3)n2)c(C)c1Br (centres undefined)
[10]
  AC50: 3.28 µM (active)
Protein Wnt-3a
  IC50: 4.35 µM (active)
[11]
  AC50: 6.78 µM (active)

## CN1CCN(c2ncc3nc(-c4ccc(F)cc4)c(=O)n(C4CC4)c3n2)CC1
Cytochrome P450 3A4
  AC50: inconclusive
Cytochrome P450 2C19
  AC50: 25.1 µM (inconclusive)

## CCc1ccc(-c2nn(-c3ccccc3)cc2CSC(=N)N)cc1
[12]
  CC50: 13.7 µM (active)
BJ [4]
  EC50: > 133 µM (inactive)
INS1
  AC50: 8.15 µM (active)
[13]
  EC50: 11.2 µM (active)
[14]
  EC50: 9.61 µM (active)

## COc1ccccc1-c1cc(C(F)(F)F)nc(S(C)(=O)=O)n1
Cells [15]
  EC50: > 350 µM (not active)
[16]
  AC50: 6.81 µM (active)
[10]
  AC50: 4.06 µM (active)
Cells [17]
  EC50: > 350 µM (not active)
[18]
  AC50: 5.35 µM (active)
[2]
  AC50: 5.07 µM (active)
[19]
  AC50: 37.6 µM (active)
Protein RecA
  EC50: 10 µM (active)
[20]
  IC50: 3.63 µM (active)
[11]
  AC50: 12.4 µM (active)

## CCN(CC(=O)Nc1c(F)cccc1F)C(=O)c1cc(S(=O)(=O)N(CC)CC)ccc1N1CCCCC1
Paired box protein Pax-8
  AC50: 3.02 µM (active)
[21]
  IC50: > 80 µM (inactive)
Protein Wnt-3a
  IC50: 11.4 µM (active)

## CC1Cc2cc(S(=O)(=O)N3CCC(C(=O)N4CCN(c5ccccc5F)CC4)CC3)ccc2N1C(=O)C1CC1 (centres undefined)
[10]
  AC50: 1.65 µM (active)
INS1
  AC50: 5.34 µM (active)
Protein Wnt-3a
  IC50: 5.83 µM (active)
[11]
  AC50: 4.74 µM (active)

## O=C(C(=Cc1ccccc1)CN1CCCCC1)c1ccccc1
[10]
  AC50: 3.18 µM (active)
[22]
  IC50: 3.73 µM (active)
[19]
  AC50: 8.28 µM (active)
[11]
  AC50: 5.08 µM (active)

## C[C@@H]1CN([C@H](C)CO)C(=O)c2cccc(NC(=O)Nc3ccc(C(F)(F)F)cc3)c2O[C@@H]1CN(C)S(=O)(=O)c1ccc(Cl)cc1
[23]
  AC50: 3.52 µM (active)

## Cc1ccc(S(=O)(=O)Nc2cccc3c2O[C@@H](CN(C)Cc2ccc(C(=O)Nc4ccccc4N)cc2)[C@H](C)CN([C@H](C)CO)C3=O)cc1
[23]
  AC50: 3.87 µM (active)

## C[C@H](CO)N1C[C@H](C)[C@H](CN(C)Cc2ccc(Cl)c(Cl)c2)Oc2ccc(NC(=O)Nc3ccc(C(F)(F)F)cc3)cc2C1=O
[23]
  AC50: 3.24 µM (active)

## COc1ccc(NC(=O)Nc2ccc3c(c2)CC(=O)N([C@H](C)CO)C[C@@H](C)[C@@H](CN(C)Cc2ccc(Cl)c(Cl)c2)O3)cc1
[23]
  AC50: 3.35 µM (active)
